Laboratory results published in BindingDB's records for PubMed 38142509 (Sichuan University).

Target: Signal transducer and activator of transcription 3 (Homo sapiens, UniProt P40763)
Test: Inhibition of STAT3 (unknown origin)

Sequence of Signal transducer and activator of transcription 3 (P40763 whole entry): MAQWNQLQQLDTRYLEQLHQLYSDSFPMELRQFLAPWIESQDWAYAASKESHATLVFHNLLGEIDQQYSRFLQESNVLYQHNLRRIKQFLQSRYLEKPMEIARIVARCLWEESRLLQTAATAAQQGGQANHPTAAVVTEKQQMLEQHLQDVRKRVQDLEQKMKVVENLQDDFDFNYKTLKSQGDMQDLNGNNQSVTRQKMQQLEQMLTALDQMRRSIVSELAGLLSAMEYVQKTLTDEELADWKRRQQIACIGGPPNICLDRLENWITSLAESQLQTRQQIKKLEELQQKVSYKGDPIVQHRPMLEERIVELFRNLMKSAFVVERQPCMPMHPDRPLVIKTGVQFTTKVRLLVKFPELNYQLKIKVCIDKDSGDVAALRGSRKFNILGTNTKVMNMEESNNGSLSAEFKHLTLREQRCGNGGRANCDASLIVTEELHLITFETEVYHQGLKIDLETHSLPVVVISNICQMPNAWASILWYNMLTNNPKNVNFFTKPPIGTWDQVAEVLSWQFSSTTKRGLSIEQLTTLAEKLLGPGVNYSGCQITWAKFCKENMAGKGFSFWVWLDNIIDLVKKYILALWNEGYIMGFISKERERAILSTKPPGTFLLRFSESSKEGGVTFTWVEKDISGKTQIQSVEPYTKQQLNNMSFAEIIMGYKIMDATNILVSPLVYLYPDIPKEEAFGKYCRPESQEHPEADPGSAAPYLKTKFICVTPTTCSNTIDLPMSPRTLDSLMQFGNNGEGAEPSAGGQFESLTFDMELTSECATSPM

Compound: COC(=O)[C@@]12OC[C@]34[C@H]([C@@H](O)[C@@H]1O)[C@@]1(C)CC(=O)C(O)=C(C)[C@@H]1C[C@H]3OC(=O)[C@H](OC(=O)C=C(C)C(C)(C)OC(C)=O)[C@@H]24
- IC50: 2.4 nM
